Literature values in PubChem BioAssay AID1259409 (Chemical Carcinogenesis Research Information System (CCRIS), 2018).
Where “and” joins values, the source holds several entries; their conditions need not be identical. Equal entries are not always repeated.

Tested on: rodent chemically induced tumor inhibition, incidence and multiplicity
Experiment: CCRIS tumor inhibitor studies
Details: Species: RAT, Promoter: NONE USED

SMILES: CN1C(C(=O)Nc2ccccn2)=C(O)c2ccccc2S1(=O)=O
- tumour outcome (control, treated, inhibition, significance) (Carcinogen: AZOXYMETHANE, 25843-45-2, Dose [Inhibitor]: 0, 400 PPM IN DIET BEGINNING 1 WK PRIOR TO CARCINOGEN TREATMENT FOR DURATION OF STUDY (STUDY DURATION: 54 WK), Route [Inhibitor]: ORAL, Strain/Sex: F344/MALE, Target Tissue: Type of Lesion: COLON: ADENOCARCINOMA, Dose [Carcinogen]: 15 MG/KG/BW 1/WK FOR 2 WK): 58%, 19%, 67%, p<0.01
- tumour outcome (control, treated, inhibition, significance) (Carcinogen: AZOXYMETHANE, 25843-45-2, Dose [Inhibitor]: 0, 400 PPM IN DIET BEGINNING 1 WK PRIOR TO CARCINOGEN TREATMENT FOR DURATION OF STUDY (STUDY DURATION: 54 WK), Route [Inhibitor]: ORAL, Strain/Sex: F344/MALE, Target Tissue: Type of Lesion: COLON: ADENOMA, Dose [Carcinogen]: 15 MG/KG/BW 1/WK FOR 2 WK): 6%, 3%, 50%, not calculated
- tumour outcome (control, treated, inhibition, significance) (Carcinogen: AZOXYMETHANE, 25843-45-2, Dose [Inhibitor]: 0, 400 PPM IN DIET BEGINNING PRIOR TO CARCINOGEN DOSE AND CONTINUING FOR DURATION OF STUDY (STUDY DURATION: 54 WK), Route [Inhibitor]: ORAL, Strain/Sex: F344/MALE, Target Tissue: Type of Lesion: COLON: ADENOCARCINOMA, Dose [Carcinogen]: 15 MG/KG 1/WK FOR 2 WK): 72%, 22%, 69%, p<0.001
- tumour outcome (control, treated, inhibition, significance) (Carcinogen: AZOXYMETHANE, 25843-45-2, Dose [Inhibitor]: 0, 400 PPM IN DIET BEGINNING PRIOR TO CARCINOGEN DOSE AND CONTINUING FOR DURATION OF STUDY (STUDY DURATION: 54 WK), Route [Inhibitor]: ORAL, Strain/Sex: F344/MALE, Target Tissue: Type of Lesion: COLON: ADENOMA, Dose [Carcinogen]: 15 MG/KG 1/WK FOR 2 WK): 14%, 6%, 57%, not calculated
- tumour outcome (control, treated, inhibition, significance) (Carcinogen: AZOXYMETHANE, 25843-45-2, Dose [Inhibitor]: 0, 400 PPM IN DIET BEGINNING PRIOR TO CARCINOGEN DOSE AND CONTINUING FOR DURATION OF STUDY (STUDY DURATION: 54 WK), Route [Inhibitor]: ORAL, Strain/Sex: F344/MALE, Target Tissue: Type of Lesion: SMALL INTESTINE: ADENOCARCINOMA, Dose [Carcinogen]: 15 MG/KG 1/WK FOR 2 WK): 50%, 8%, 84%, p<0.001
- tumour outcome (control, treated, inhibition, significance) (Carcinogen: AZOXYMETHANE, 25843-45-2, Dose [Inhibitor]: 0, 400 PPM IN DIET BEGINNING PRIOR TO CARCINOGEN DOSE AND CONTINUING FOR DURATION OF STUDY (STUDY DURATION: 54 WK), Route [Inhibitor]: ORAL, Strain/Sex: F344/MALE, Target Tissue: Type of Lesion: SMALL INTESTINE: ADENOMA, Dose [Carcinogen]: 15 MG/KG 1/WK FOR 2 WK): 3%, 0%, 100%, not calculated
- tumour outcome (control, treated, inhibition, significance) (Carcinogen: AZOXYMETHANE, 25843-45-2, Dose [Inhibitor]: 0, 400 PPM IN DIET FOR 56 WK BEGINNING 2 WK PRIOR TO CARCINOGEN TREATMENT (STUDY DURATION: 56 WK), Route [Inhibitor]: ORAL, Strain/Sex: F344/MALE, Target Tissue: Type of Lesion: COLON(DISTAL): TUMOR, Dose [Carcinogen]: 15 MG/KG 1/WK FOR 2 WK): 52%, 22%, 58%, p<0.05
- tumour outcome (control, treated, inhibition, significance) (Carcinogen: AZOXYMETHANE, 25843-45-2, Dose [Inhibitor]: 0, 400 PPM IN DIET FOR 56 WK BEGINNING 2 WK PRIOR TO CARCINOGEN TREATMENT (STUDY DURATION: 56 WK), Route [Inhibitor]: ORAL, Strain/Sex: F344/MALE, Target Tissue: Type of Lesion: COLON(PROXIMAL): TUMOR, Dose [Carcinogen]: 15 MG/KG 1/WK FOR 2 WK): 38%, 7%, 82%, p<0.001
- tumour outcome (control, treated, inhibition, significance) (Carcinogen: AZOXYMETHANE, 25843-45-2, Dose [Inhibitor]: 0, 400 PPM IN DIET FOR 56 WK BEGINNING 2 WK PRIOR TO CARCINOGEN TREATMENT (STUDY DURATION: 56 WK), Route [Inhibitor]: ORAL, Strain/Sex: F344/MALE, Target Tissue: Type of Lesion: SMALL INTESTINE(DISTAL): TUMOR, Dose [Carcinogen]: 15 MG/KG 1/WK FOR 2 WK): 12%, 9%, 25%, not significant
- tumour outcome (control, treated, inhibition, significance) (Carcinogen: AZOXYMETHANE, 25843-45-2, Dose [Inhibitor]: 0, 400 PPM IN DIET FOR 56 WK BEGINNING 2 WK PRIOR TO CARCINOGEN TREATMENT (STUDY DURATION: 56 WK), Route [Inhibitor]: ORAL, Strain/Sex: F344/MALE, Target Tissue: Type of Lesion: SMALL INTESTINE(PROXIMAL): TUMOR, Dose [Carcinogen]: 15 MG/KG 1/WK FOR 2 WK): 33%, 9%, 73%, p<0.05
- tumour outcome (control, treated, inhibition, significance) (Carcinogen: INTRARECTAL, Dose [Inhibitor]: N-METHYLNITROSOUREA, 684-93-5, Route [Inhibitor]: 0, 130 MG/KG VEGETABLE DIET (2.5 MG/D) BEGINNING 7 D POST LAST CARCINOGEN TREATMENT AND CONTINUING FOR STUDY DURATION (S, Strain/Sex: CD-1/MALE, Target Tissue: Type of Lesion: INTESTINE: TUMOR): 9/9 (100%), 5/10 (50%), 50%, not calculated
- tumour outcome (control, treated, inhibition, significance) (Carcinogen: METHYLAZOXYMETHANOL, 590-96-5, Dose [Inhibitor]: 8 MG/KG BW/D IN DIET FOR 19 WK STARTING 7 D AFTER CARCINOGEN TREATMENT AND CONTINUING FOR DURATION OF STUDY (STUDY DURAT, Route [Inhibitor]: ORAL, Strain/Sex: SPRAGUE-DAWLEY/MALE, Target Tissue: Type of Lesion: INTESTINES: TUMOR, Dose [Carcinogen]: 30 MG/KG BW ONCE): 9/9 (100%), 4/10 (40%), 60%, not calculated
- tumour outcome (control, treated, inhibition, significance) (Carcinogen: METHYLAZOXYMETHANOL, 590-96-5, Dose [Inhibitor]: 8.25 MG/KG BW/D IN DIET FOR 19 WK STARTING 7 D AFTER CARCINOGEN TREATMENT AND CONTINUING FOR DURATION OF STUDY (STUDY DU, Route [Inhibitor]: ORAL, Strain/Sex: SPRAGUE-DAWLEY/MALE, Target Tissue: Type of Lesion: INTESTINES: TUMOR, Dose [Carcinogen]: 30 MG/KG BW ONCE): 9/10 (90%), 2/10 (20%), 78%, not calculated and 9/10 (90%), 7/11 (64%), 29%, not calculated
- tumour outcome (control, treated, inhibition, significance) (Carcinogen: METHYLAZOXYMETHANOL, 590-96-5, Dose [Inhibitor]: 12.5 MG/KG BW/D IN DIET FOR 19 WK STARTING 7 D AFTER CARCINOGEN TREATMENT AND CONTINUING FOR DURATION OF STUDY (STUDY DU, Route [Inhibitor]: ORAL, Strain/Sex: SPRAGUE-DAWLEY/MALE, Target Tissue: Type of Lesion: INTESTINES: TUMOR, Dose [Carcinogen]: 30 MG/KG BW ONCE): 8/9 (88%), 3/9 (33%), 63%, not calculated
